Our source for the IC50 values is patent US20240116985A1, “STAPLED PEPTIDES AND METHODS THEREOF” (priority 2020, published 2024).

pIC50: −log10 of the molar value.

The target of experiment [1] is T1, beta-catenin/TCF4 engagement (Homo sapiens, UniProt P35222).
T1 construct: expressed in transfected cells; host or cells: HEK293
T1 sequence (P35222 1-781): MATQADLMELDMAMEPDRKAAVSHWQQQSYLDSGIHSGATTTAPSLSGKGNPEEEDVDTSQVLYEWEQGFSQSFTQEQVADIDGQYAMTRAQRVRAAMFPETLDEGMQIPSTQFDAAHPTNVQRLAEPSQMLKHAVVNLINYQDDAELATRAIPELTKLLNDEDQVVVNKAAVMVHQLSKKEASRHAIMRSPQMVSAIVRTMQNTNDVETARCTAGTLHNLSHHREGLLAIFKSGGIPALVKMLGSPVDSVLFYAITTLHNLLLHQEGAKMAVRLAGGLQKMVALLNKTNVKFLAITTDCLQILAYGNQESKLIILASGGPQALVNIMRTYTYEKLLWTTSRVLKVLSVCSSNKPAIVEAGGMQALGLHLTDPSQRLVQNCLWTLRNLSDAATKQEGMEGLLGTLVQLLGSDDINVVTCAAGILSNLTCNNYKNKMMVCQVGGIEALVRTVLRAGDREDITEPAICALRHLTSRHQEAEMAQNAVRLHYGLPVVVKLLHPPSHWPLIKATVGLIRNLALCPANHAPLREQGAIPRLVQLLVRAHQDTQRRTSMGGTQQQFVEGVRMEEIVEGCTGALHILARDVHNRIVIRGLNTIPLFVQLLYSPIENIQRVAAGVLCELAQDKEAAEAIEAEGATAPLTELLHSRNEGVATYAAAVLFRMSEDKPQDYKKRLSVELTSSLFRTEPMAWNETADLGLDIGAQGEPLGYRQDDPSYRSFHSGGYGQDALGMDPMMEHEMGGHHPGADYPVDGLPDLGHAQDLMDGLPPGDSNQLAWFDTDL
Put plainly: Nano-BRET target engagement assay (B-cat-Halo & TCF4-Luc in HEK293 cells). The class given is cell-based. To be noted: absolute IC50; read-out: NanoBRET Abs IC50.

In experiment [2] the target is T2, full-length beta-Catenin (Uniprot ID P35222) (Homo sapiens, UniProt P35222).
T2 construct: 10 nM full-length beta-Catenin (Uniprot ID P35222)
T2 sequence (P35222 1-781): T1 sequence (P35222 1-781)
Put plainly: Fluorescence polarization IC50 (beta-catenin / 5FAM-TCF4 10-53 competition). The note with it: fluorescence polarization; read-out: beta-Catenin FP IC50. Type of experiment: binding.

Consider `CC(=O)N1CCC[C@]12CC=CCCCC1(CCCC=CCCCOC(=O)N3CC[C@@](C(=O)N[C@@H](Cc4ccccc4C(F)(F)F)C(=O)N[C@H](C(=O)N[C@@H](CCC(N)=O)C(N)=O)[C@@H](C)c4ccc5ccccc5c4)(C3)NC(=O)[C@H](CC(C)C)NC(=O)[C@H](Cc3ccccc3)NC(=O)[C@H](C)NC(=O)[C@H](C)NC(=O)[C@H](Cc3cccc(C(=O)O)c3)NC(=O)[C@H](CC(=O)O)NC1=O)NC(=O)[C@H](CC(C)(C)C)NC(=O)[C@H](CC(=O)O)NC2=O` (stereo partly drawn) [I-2464, Ac-PL3-Asp-Npg-B5-Asp-3COOHF-Ala-Ala-Phe-Leu-PyrS2-2F3MeF-SbMe2NapA-Gln-NH2], for which the negative-log IC50 (pIC50) in experiment [1] is 4.78; in experiment [2] it was 7.10.
On the same counts, the results for `CC(=O)N1CCC[C@]12CC=CCCCC1(CCCC=CCCCOC(=O)N3CC[C@@](C(=O)N[C@@H](Cc4ccccc4C(F)(F)F)C(=O)N[C@H](C(=O)N[C@@H](C)C(N)=O)[C@@H](C)c4ccc5ccccc5c4)(C3)NC(=O)[C@H](CC(C)C)NC(=O)[C@H](Cc3ccccc3)NC(=O)[C@H](C)NC(=O)[C@H](CCC(N)=O)NC(=O)[C@H](Cc3cccc(C(=O)O)c3)NC(=O)[C@H](CC(=O)O)NC1=O)NC(=O)[C@H](CC(C)(C)C)NC(=O)[C@H](CC(=O)O)NC2=O` (stereo partly drawn) [I-2465, Ac-PL3-Asp-Npg-B5-Asp-3COOHF-Gln-Ala-Phe-Leu-PyrS2-2F3MeF-SbMe2NapA-Ala-NH2] are less than 4.70 and 6.79.
On the same counts, the results for `CCNC(=O)CC[C@H](NC(=O)[C@H](Cc1csc2ccccc12)NC(=O)[C@H](Cc1ccsc1)NC(=O)[C@]12CCN(C1)C(=O)OCCCC=CCCCC1(CCCC=CC[C@]3(CCCN3C(C)=O)C(=O)N[C@@H](CC(=O)O)C(=O)N[C@@H](CC(C)(C)C)C(=O)N1)C(=O)N[C@@H](CC(=O)O)C(=O)N[C@@H](CN(CC(=O)O)CC(F)(F)F)C(=O)N[C@@H](C)C(=O)N[C@@H](C)C(=O)N[C@@H](Cc1ccccc1)C(=O)N[C@@H](CC(C)C)C(=O)N2)C(=O)N[C@@H](C)C(N)=O` (stereo partly drawn) [I-2471, Ac-PL3-Asp-Npg-B5-Asp-TfeGA-Ala-Ala-Phe-Leu-PyrS2-3Thi-BztA-[NHEt]GlnR-Ala-NH2] are 5.68 and 7.85.
On the same counts, the results for `CCNC(=O)CC[C@H](NC(=O)[C@H](Cc1csc2ccccc12)NC(=O)[C@H](Cc1ccccc1C(F)(F)F)NC(=O)[C@]12CCN(C1)C(=O)OCCCC=CCCCC1(CCCC=CC[C@]3(CCCN3C(C)=O)C(=O)N[C@@H](CC(=O)O)C(=O)N[C@@H](CC(C)(C)C)C(=O)N1)C(=O)N[C@@H](CC(=O)O)C(=O)N[C@@H](Cc1cccc(C(=O)O)c1)C(=O)N[C@@H](C)C(=O)N[C@@H](C)C(=O)N[C@@H](Cc1ccccc1)C(=O)N[C@@H](CC)C(=O)N2)C(=O)N[C@@H](C)C(N)=O` (stereo partly drawn) [I-2472, Ac-PL3-Asp-Npg-B5-Asp-3COOHF-Ala-Ala-Phe-Abu-PyrS2-2F3MeF-BztA-INHEt]GlnR-Ala-NH2] are 5.74 and 7.89.
As to `CC(=O)N1CCC[C@]12CC=CCCCC1(CCCC=CCCCOC(=O)N3CC[C@@](C(=O)N[C@@H](Cc4ccsc4)C(=O)N[C@@H](Cc4csc5ccccc45)C(=O)N[C@@H](CCCCN)C(N)=O)(C3)NC(=O)[C@H](CC(N)=O)NC(=O)[C@H](Cc3ccccc3)NC(=O)[C@H](C)NC(=O)C(C)(C)NC(=O)[C@H]([C@@H](C)O)NC(=O)[C@H](CC(N)=O)NC1=O)NC(=O)[C@H](CC(C)(C)C)NC(=O)[C@H](CC(=O)O)NC2=O` (stereo partly drawn) [I-2477, Ac-PL3-Asp-Npg-B5-Asn-Thr-Aib-Ala-Phe-Asn-PyrS2-3Thi-BztA-Lys-NH2], the pIC50 is less than 4.70 in experiment [1] and 6.78 in experiment [2].
On the same counts, the results for `CC(=O)N1CCC[C@]12CC=CCCCC1(CCCC=CCCCOC(=O)N3CC[C@@](C(=O)N[C@@H](Cc4ccsc4)C(=O)N[C@@H](Cc4csc5ccccc45)C(=O)N[C@@H](Cc4ccc(O)cc4)C(N)=O)(C3)NC(=O)[C@H](CC(N)=O)NC(=O)[C@H](Cc3ccccc3)NC(=O)[C@H](C)NC(=O)C(C)(C)NC(=O)[C@H]([C@@H](C)O)NC(=O)[C@H](CC(N)=O)NC1=O)NC(=O)[C@H](CC(C)(C)C)NC(=O)[C@H](CC(=O)O)NC2=O` (stereo partly drawn) [I-2478, Ac-PL3-Asp-Npg-B5-Asn-Thr-Aib-Ala-Phe-Asn-PyrS2-3Thi-BztA-Tyr-NH2] are less than 4.70 and 6.51.
With `CC(=O)N1CCC[C@]12CC=CCCCC1(CCCC=CCCCOC(=O)N3CC[C@@](C(=O)N[C@@H](Cc4ccccc4C(F)(F)F)C(=O)N[C@@H](Cc4c(C(F)(F)F)[nH]c5ccccc45)C(=O)N[C@@H](CCC(N)=O)C(N)=O)(C3)NC(=O)[C@H](CC(C)C)NC(=O)[C@H](Cc3ccccc3)NC(=O)[C@H](C)NC(=O)[C@H](C)NC(=O)[C@H](Cc3cccc(C(=O)O)c3)NC(=O)[C@H](CC(=O)O)NC1=O)NC(=O)[C@H](CC(C)(C)C)NC(=O)[C@H](CC(=O)O)NC2=O` (stereo partly drawn) [I-2484, Ac-PL3-Asp-Npg-B5-Asp-3COOHF-Ala-Ala-Phe-Leu-PyrS2-2F3MeF-2F3MeW-Gln-NH2], the pIC50 in experiment [1] was less than 4.70; in experiment [2], 5.20.
On the same counts, the results for `CC(=O)N1CCC[C@]12CC=CCCCC1(CCCC=CCCCOC(=O)N3CC[C@@](C(=O)N[C@@H](Cc4ccccc4C(F)(F)F)C(=O)N[C@@H](Cc4c(C(F)(F)F)[nH]c5ccccc45)C(=O)N[C@@H](C)C(N)=O)(C3)NC(=O)[C@H](CC(C)C)NC(=O)[C@H](Cc3ccccc3)NC(=O)[C@H](C)NC(=O)[C@H](CCC(N)=O)NC(=O)[C@H](Cc3cccc(C(=O)O)c3)NC(=O)[C@H](CC(=O)O)NC1=O)NC(=O)[C@H](CC(C)(C)C)NC(=O)[C@H](CC(=O)O)NC2=O` (stereo partly drawn) [I-2485, Ac-PL3-Asp-Npg-B5-Asp-3COOHF-Gln-Ala-Phe-Leu-PyrS2-2F3MeF-2F3MeW-Ala-NH2] are less than 4.70 and 5.32.
Consider `CC(=O)N1CCC[C@]12CC=CCCCC1(CCCC=CCCCOC(=O)N3CC[C@@](C(=O)N[C@@H](Cc4ccccc4C(F)(F)F)C(=O)N[C@@H](Cc4csc5c(Cl)cccc45)C(=O)N[C@@H](CCC(N)=O)C(N)=O)(C3)NC(=O)[C@H](CC(C)C)NC(=O)[C@H](Cc3ccccc3)NC(=O)[C@H](C)NC(=O)[C@H](C)NC(=O)[C@H](Cc3cccc(C(=O)O)c3)NC(=O)[C@H](CC(=O)O)NC1=O)NC(=O)[C@H](CC(C)(C)C)NC(=O)[C@H](CC(=O)O)NC2=O` (stereo partly drawn) [I-2486, Ac-PL3-Asp-Npg-B5-Asp-3COOHF-Ala-Ala-Phe-Leu-PyrS2-2F3MeF-7C1BztA-Gln-NH2], for which the negative-log IC50 (pIC50) in experiment [1] was 5.43; in experiment [2], 7.47.
For `CC(=O)N1CCC[C@]12CC=CCCCC1(CCCC=CCCCOC(=O)N3CC[C@@](C(=O)N[C@@H](Cc4ccccc4C(F)(F)F)C(=O)N[C@@H](Cc4csc5c(Cl)cccc45)C(=O)N[C@@H](C)C(N)=O)(C3)NC(=O)[C@H](CC(C)C)NC(=O)[C@H](Cc3ccccc3)NC(=O)[C@H](C)NC(=O)[C@H](CCC(N)=O)NC(=O)[C@H](Cc3cccc(C(=O)O)c3)NC(=O)[C@H](CC(=O)O)NC1=O)NC(=O)[C@H](CC(C)(C)C)NC(=O)[C@H](CC(=O)O)NC2=O` (stereo partly drawn) [I-2487, Ac-PL3-Asp-Npg-B5-Asp-3COOHF-Gln-Ala-Phe-Leu-PyrS2-2F3MeF-7C1BztA-Ala-NH2], the pIC50 is 5.38 in experiment [1] and 7.44 in experiment [2].
